Consider 1 compound from patent US5770617A, “Terbenzimidazoles useful as antifungal agents” (Rutgers, The State University of New Jersey, priority 1997, dated 1998).

Data set [1] addresses T1, mammalian DNA topoisomerase I (Homo sapiens, UniProt P11387).
T1 sequence (P11387 1-765): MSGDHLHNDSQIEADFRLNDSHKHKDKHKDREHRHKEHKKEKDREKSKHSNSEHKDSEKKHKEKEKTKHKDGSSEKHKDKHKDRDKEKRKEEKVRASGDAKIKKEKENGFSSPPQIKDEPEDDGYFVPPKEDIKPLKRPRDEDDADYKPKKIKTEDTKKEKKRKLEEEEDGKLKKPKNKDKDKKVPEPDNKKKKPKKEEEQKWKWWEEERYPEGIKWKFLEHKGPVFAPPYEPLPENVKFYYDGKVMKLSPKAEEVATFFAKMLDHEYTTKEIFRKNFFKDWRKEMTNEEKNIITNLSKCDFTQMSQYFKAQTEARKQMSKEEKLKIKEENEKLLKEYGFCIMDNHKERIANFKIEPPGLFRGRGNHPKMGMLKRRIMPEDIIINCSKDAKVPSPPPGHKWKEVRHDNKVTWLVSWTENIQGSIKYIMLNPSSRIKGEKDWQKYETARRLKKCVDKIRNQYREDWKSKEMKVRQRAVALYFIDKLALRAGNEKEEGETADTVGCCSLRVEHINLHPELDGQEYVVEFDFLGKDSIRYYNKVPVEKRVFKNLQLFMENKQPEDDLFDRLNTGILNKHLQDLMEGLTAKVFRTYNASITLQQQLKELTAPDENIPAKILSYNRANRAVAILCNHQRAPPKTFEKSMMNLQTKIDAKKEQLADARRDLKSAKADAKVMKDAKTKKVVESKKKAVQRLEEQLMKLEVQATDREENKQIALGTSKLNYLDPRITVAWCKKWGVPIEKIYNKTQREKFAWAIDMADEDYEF
The note with it: cited from earlier work.

The subject of data set [2] is yeast cells expressing nonfunctional yeast topoisomerase I. Put plainly: Yeast cytotoxicity assay, nonfunctional yeast topoisomerase I. Type of data set: cell-based, S. cerevisiae. The source says:
(§1) The topoisomerase I-specific in vivo cytotoxicity assay was adapted from A. M. Knab et al., J. Biol. Chem., 268, 22322 (1993). In this system, various topoisomerase I genes or cDNAs cloned into the single-copy yeast plasmid vector (YCpGAL1; Knab et al., cited above) are expressed under the control of the GAL1 promoter in the JN2-134 strain of S. cerevisiae (MAT, rad52::Leu2, trp1, ade2-1, his7, ura3-52, ise1, top1-1, and leu2; M. A. Bjornsti et al., Cancer Res., 49, 6318 (1989)). The topoisomerase I gene or cDNA constructs in the vector are, respectively, the wild-type yeast topoisomerase I gene (YCpGAL-ScTOP1; need cite (1989)), a nonfunctional topoisomerase I gene where the active site tyrosine-727 is mutated to phenylalanine (YCPGAL1-Sctop1Y727; A. M. Knab et al., J. Biol. Chem., 268, 22322 (1993)), and the wild-type human topoisomerase I cDNA (YCp-GAL-hTOP1; M. A. Bjornsti et al., Cancer Res., 49, 6318 (1989)).
(§2) To qualitatively test the cytotoxicity and the topoisomerase I specificity of the drugs, yeast cells containing the specified plasmid were grown in dropout medium supplemented with uracil, 2% galactose, and the drug being tested.

Data set [3] concerns yeast cells expressing yeast topoisomerase I. Put plainly: Yeast cytotoxicity assay, yeast topoisomerase I. Type of data set: cell-based, S. cerevisiae.
Description: as §1, §2

Data set [4] concerns the target T2, Aspergillus topoisomerase I (Aspergillus nidulans, UniProt Q5BGS7).
T2 construct: about 105 kDa by phosphate transfer
T2 sequence (Q5BGS7 1-871): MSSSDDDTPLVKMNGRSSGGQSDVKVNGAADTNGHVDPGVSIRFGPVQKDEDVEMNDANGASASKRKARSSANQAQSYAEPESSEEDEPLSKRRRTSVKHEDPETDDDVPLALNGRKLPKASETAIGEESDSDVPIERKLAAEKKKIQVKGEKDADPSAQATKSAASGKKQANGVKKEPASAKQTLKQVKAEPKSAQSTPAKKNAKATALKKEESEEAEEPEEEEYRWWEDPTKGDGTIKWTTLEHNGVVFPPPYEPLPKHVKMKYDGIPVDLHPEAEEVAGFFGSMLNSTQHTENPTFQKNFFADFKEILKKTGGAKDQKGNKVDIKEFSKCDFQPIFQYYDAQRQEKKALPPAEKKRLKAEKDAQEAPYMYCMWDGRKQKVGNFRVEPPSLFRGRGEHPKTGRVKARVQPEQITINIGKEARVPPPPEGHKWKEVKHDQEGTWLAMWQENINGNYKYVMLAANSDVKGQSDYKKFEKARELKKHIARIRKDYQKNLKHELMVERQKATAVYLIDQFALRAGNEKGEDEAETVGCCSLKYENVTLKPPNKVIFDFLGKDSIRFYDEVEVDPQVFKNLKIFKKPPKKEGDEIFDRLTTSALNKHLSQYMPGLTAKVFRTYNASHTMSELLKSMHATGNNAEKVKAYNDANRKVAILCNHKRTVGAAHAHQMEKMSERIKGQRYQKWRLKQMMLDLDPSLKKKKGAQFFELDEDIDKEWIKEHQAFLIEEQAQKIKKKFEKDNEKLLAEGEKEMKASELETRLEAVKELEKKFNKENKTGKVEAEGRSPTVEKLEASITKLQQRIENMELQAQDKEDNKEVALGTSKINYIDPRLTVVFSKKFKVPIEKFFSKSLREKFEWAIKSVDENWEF
Put plainly: Topoisomerase I cleavage assay, Aspergillus enzyme. Type of data set: biochemical. The note with it: DNA cleavage assay. As to the method: Two liters of YG medium (0.5% yeast extract and 2% glucose) were inoculated with approximately 5×10^8 conidia/ml. After 16 hours of growth at 37° C., the mycelia were collected, washed with Buffer I (50 mM Tris-HCl, pH 7.7, 1 mM EDTA, 1 mM EGTA, 10% glycerol, 1 mM phenylmethylsulfonyl fluoride and 1 mM 2-mercaptoethanol), and quickly chilled in liquid nitrogen. The frozen mycelia (approximately 20 grams) were ground to powder and resuspended in 300 ml of Buffer I. The lysate was centrifuged at 10K rpm in a Sorval HB3 Rotor for 15 minutes to remove cell debris. The supernatant was made 6% in polyethylene glycol (v/v) and 1M NaCl. After one hour on ice with gentle stirring, the solution was centrifuged at 14K rpm in a Sorvall Rotor for 30 minutes to remove nucleic acids.
Subsequent steps in purification were the same as described previously for purification of recombinant human DNA topoisomerase I (B. Gatto et al., Cancer Res., 56, 2795 (1996)). Briefly, the supernatant was chromatographed directly onto a hydroxyapatite Bio-gel HTP (BioRad Laboratories, Richmond, Calif.) column. Fractions containing relaxation activity were pooled, diluted and then loaded onto a BioRex70 column (BioRad Laboratories, Richmond, Calif.). The column was developed with a linear gradient from 0.2 to 1M KCl. The peak fractions were pooled and dialyzed overnight at 4° C. against 30 mM potassium phosphate, 50% glycerol (v/v), 0.5 mM EDTA, and 1 mM DTT. Recombinant human topoisomerase I was purified from Escherichia coli BL21 (DE3) harboring PET1B as described previously (Gatto et al., Cancer Res., 56, 2795 (1996)).
DNA topoisomerase I cleavage assays were performed as described by Y.-H. Hsiang et al., J. Biol. Chem., 260, 14873 (1985). YEpG DNA was linearized with BamHI and then 3 '-end-labeled with Klenow polymerase and α[-^32 P]dCTP. Following phenol extraction and ethanol precipitation, the labeled DNA was resuspended in 10 mM Tris, pH 8.0, and 1 mM EDTA. The DNA cleavage assay was done in a reaction mixture (20 μl) containing 40 mM Tris-HCl, pH 7.8, 100 mM KCl, 10 mM MgCl2, 0.5 mM dithiothreitol, 0.5 mM EDTA, 30 μg/ml bovine serum albumin, 20 ng of labeled YEpG DNA, and […] of Aspergillus or human topoisomerase I diluted to various extents. Following incubation at 23° C. for 15 minutes, the reactions were terminated by the addition of SDS (final concentration 1%) and proteinase K (final concentration 200 μg/ml). Proteinase K treatment continued at 37° C. for another 1 hour. The terminated reactions were either alkali-denatured and then loaded (alkaline loading) or loaded directedly in neutral loading buffer (neutral loading) onto a 1% agarose gel in neutral TPE electrophoresis solution. Gel drying and autoradiography were performed as described by Hsiang et al., cited above.

Data set [5] relates to yeast cells expressing human topoisomerase I. Put plainly: Yeast cytotoxicity assay, human topoisomerase I. Type of data set: cell-based, S. cerevisiae.
Description: as §1, §2

The structures appear in SMILES notation.

As for `COc1ccc(-c2nc3ccc([N+](=O)[O-])cc3[nH]2)cc1` [QS/II/9], the “inhibition (poisoning) of mammalian DNA topoisomerase I, previous studies” value in data set [1] was “inhibitors (poisons)”. In data set [2], the “cytotoxicity to yeast cells expressing nonfunctional yeast topoisomerase I” value was “not cytotoxic”. Moreover, in data set [3], the “cytotoxicity to yeast cells expressing functional yeast topoisomerase I” value was “not cytotoxic”. Further, the “inhibition (poisoning) of Aspergillus topoisomerase I, in words” value in data set [4] is on record as “None of the mono-benzimidazoles, including QS/II/50, QS/II/51, QS/II/59A, an QS/II/9, exhibited any inhibitory effect”. Further, the “cytotoxicity to yeast cells expressing human topoisomerase I” value in data set [5] was “highly cytotoxic”.
